Assay [1] concerns the target PDE10A (H-PDE10A2, Human Phosphodiesterase 10A2) (Homo sapiens (Human), UniProt Q9Y233). The assay can be described thus: Measurement of PDE10A inhibitory activity-1 (3H-cAMP, recombinant enzyme). To be noted: H-PDE10A2, 64 nM cAMP, 25° C., 2 hours. The format is biochemical. On the procedure: To a solution containing 20 mM Tris-HCl (pH 7.5), 1 mM MgCl2, 100 μM EDTA, 330 μg/ml bovine serum albumin, 50 kU/ml 5′-nucleotidase, 0.1 μCi ^3H-cAMP (64 nM cAMP), and PDE10A (H-PDE10A2, Human Phosphodiesterase 10A2, Scottish Biomedical), a test compound was added, and the mixture was reacted at 25° C. for 2 hours. To the reaction solution, QAE-Sephadex (17-0190-01, GE Healthcare Japan Corp.) suspended in 10 mM HEPES-Na (pH 7.0) (hereinafter, also referred to as a “QAE-Sephadex suspension”) was added, and the mixture was shaken for 1 minute and left standing for 5 minutes to obtain a supernatant. To the supernatant, a QAE-Sephadex suspension was further added, and the mixture was shaken for 1 minute and left standing for 5 minutes. Then, the obtained supernatant was transferred to LumaPlate (PerkinElmer, Inc.) and assayed using a radiation counter (TopCount NXT, PerkinElmer, Inc.).
The value of the sample reacted without the addition of both a test compound and PDE10A was defined as 0%, and the value of the sample reacted in the presence of PDE10A without the addition of a test compound was defined as 100%.

The target in a further assay is PDE10A (Homo sapiens (Human), UniProt Q9Y233). The assay can be described thus: Measurement of PDE10A inhibitory activity-2 (PDE10A fraction prepared from MOLT-4 cells). The format is biochemical. To be noted: PDE10A fraction from MOLT-4 cells (peak around 250 mM NaCl). The gist of the method: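 Enzyme source was a PDE10A-containing fraction from MOLT-4 cell soluble extract, resolved by HiTrap Q anion exchange with a 0–0.8 M NaCl gradient and selected by cAMP-hydrolysing activity. IC50 determined with this fraction by the same procedure as the preceding PDE10A assay.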
Sequence of PDE10A (Q9Y233 whole entry): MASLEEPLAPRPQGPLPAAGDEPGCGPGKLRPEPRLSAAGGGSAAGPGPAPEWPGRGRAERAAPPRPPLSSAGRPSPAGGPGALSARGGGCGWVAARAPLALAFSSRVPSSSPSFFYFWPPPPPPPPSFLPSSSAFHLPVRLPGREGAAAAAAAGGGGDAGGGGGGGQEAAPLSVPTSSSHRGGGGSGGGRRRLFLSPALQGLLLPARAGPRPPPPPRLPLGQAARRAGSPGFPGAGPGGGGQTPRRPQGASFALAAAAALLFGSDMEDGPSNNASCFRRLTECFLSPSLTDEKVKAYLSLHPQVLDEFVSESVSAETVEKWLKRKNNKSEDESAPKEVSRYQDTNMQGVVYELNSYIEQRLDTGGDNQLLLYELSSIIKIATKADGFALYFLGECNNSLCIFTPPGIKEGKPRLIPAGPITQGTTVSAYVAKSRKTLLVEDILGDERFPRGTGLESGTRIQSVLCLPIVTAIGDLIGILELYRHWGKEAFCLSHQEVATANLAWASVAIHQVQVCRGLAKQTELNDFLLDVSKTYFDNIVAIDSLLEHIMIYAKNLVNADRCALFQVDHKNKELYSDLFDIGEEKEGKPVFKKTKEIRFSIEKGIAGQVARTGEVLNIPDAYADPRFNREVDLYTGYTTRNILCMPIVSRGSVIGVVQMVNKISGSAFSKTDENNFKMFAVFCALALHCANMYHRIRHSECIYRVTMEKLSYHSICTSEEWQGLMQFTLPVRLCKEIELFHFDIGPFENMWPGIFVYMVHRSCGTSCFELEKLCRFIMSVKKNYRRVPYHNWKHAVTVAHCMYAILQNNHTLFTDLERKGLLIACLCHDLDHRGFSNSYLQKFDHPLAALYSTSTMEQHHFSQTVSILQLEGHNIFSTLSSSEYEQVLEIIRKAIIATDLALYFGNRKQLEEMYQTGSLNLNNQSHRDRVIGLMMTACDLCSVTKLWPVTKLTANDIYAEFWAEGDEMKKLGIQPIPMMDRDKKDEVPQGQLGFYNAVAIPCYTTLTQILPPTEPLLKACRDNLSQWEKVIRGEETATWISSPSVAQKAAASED

Another assay deals with Male C57BL/6 Cr mice. The assay can be described thus: Test on suppression of phencyclidine-induced hyperlocomotion in mice. Type of assay: in vivo, mouse. To be noted: Mus musculus, po, 1 h, locomotor activity, test compound 10 mg/kg oral, phencyclidine 5 mg/kg s.c. approx. 1 hour later, measured for 1 hour. On the procedure:
Male C57BL/6 Cr mice (Japan SLC, Inc.) (8 weeks old) were used in the experiment. A test compound was suspended at 1 mg/mL in a 0.5% hydroxypropylcellulose solution to prepare a suspension for administration. The suspension of the test compound or a solvent (0.5% hydroxypropylcellulose solution) was orally administered at a dose of 10 mL/kg to each mouse. After the administration, the mouse was immediately placed in a locomotor activity measurement apparatus (Muromachi Kikai Co., Ltd., locomotor activity measurement system SUPERMEX). Approximately 1 hour later, phencyclidine (5 mg/10 mL/kg) or a solvent (10 mL/kg saline) was subcutaneously administered to the mouse. The locomotor activity was measured from immediately after the subcutaneous administration to 1 hour later.
Percent inhibition exceeding 100 means that when the activity of the phencyclidine administration control group was defined as 100, the activity of the group given a test compound was lower than that of the solvent administration control group.

Structures can show the parent of a compound that is named as a salt.

Sequence of PDE10A (H-PDE10A2, Human Phosphodiesterase 10A2) (Q9Y233 267-1055): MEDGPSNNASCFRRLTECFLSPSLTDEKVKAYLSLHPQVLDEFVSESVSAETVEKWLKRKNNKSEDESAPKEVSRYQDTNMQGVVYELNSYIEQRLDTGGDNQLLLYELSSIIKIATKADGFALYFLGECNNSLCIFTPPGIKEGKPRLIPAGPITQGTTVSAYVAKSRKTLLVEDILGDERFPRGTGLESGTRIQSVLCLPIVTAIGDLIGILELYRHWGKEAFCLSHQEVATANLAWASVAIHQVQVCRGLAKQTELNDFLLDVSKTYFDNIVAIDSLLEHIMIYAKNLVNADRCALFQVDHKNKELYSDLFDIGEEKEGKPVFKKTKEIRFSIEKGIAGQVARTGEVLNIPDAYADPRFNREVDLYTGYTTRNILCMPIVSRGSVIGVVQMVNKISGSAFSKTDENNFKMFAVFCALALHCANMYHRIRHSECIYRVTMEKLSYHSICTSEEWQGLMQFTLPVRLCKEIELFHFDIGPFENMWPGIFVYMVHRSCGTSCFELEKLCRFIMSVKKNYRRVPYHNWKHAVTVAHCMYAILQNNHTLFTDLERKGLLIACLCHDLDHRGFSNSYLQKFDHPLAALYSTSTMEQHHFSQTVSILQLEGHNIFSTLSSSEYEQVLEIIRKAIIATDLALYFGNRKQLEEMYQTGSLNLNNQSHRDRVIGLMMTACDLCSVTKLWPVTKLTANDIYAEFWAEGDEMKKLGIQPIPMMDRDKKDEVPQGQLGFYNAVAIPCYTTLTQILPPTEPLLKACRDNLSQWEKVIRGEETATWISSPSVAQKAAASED

In general, IC50 refers to the concentration that inhibits the measured activity by half. On to `COCc1ccc(C(C)=O)c2sc(C(=O)Nc3ccc4c(CS(C)(=O)=O)cccc4n3)c(C)c12` [Example 111, 7-Acetyl-4-(methoxymethyl)-3-methyl-N-(5-((methylsulfonyl)methyl)quinolin-2-yl)benzo[b]thiophene-2-carboxamide methanesulfonate], for which, in assay [1] (methanesulfonate), the IC50 was 1.1 nM. On to `COCc1ccc(C(C)=O)c2sc(C(=O)Nc3cc(CN4CC[C@@H](O)C4)c4ccccc4n3)c(C)c12` [Example 41, (R)-7-Acetyl-N-(4-((3-hydroxypyrrolidin-1-yl)methyl)quinolin-2-yl)-4-(methoxymethyl)-3-methylbenzo[b]thiophene-2-carboxamide p-toluenesulfonate], for which the IC50 in assay [1] (p-toluenesulfonate) was determined as 1.3 nM. As for `COCc1ccc(C(C)=O)c2sc(C(=O)Nc3ccc4c(C(=O)N5CC(OC)C5)cccc4n3)c(C)c12` [Example 105, 7-Acetyl-N-(5-((3-methoxyazetidin-1-yl)carbonyl)quinolin-2-yl)-4-(methoxymethyl)-3-methylbenzo[b]thiophene-2-carboxamide methanesulfonate], in assay [1] (methanesulfonate), the IC50 amounted to 2.1 nM.

`COCc1cccc2nc(NC(=O)c3sc4c(C(C)=O)ccc(COC)c4c3C)ccc12` [Example 67, 7-Acetyl-4-(methoxymethyl)-N-(5-(methoxymethyl)quinolin-2-yl)-3-methylbenzo[b]thiophene-2-carboxamide]: the IC50 in assay [1] came out at 1.8 nM. `COCc1ccc(C(C)=O)c2sc(C(=O)Nc3cc(C(C)(C)O)c4ccccc4n3)c(C)c12` [Example 27, 7-Acetyl-N-(4-(2-hydroxypropan-2-yl)quinolin-2-yl)-4-(methoxymethyl)-3-methylbenzo[b]thiophene-2-carboxamide hydrochloride]: the IC50 in assay [1] (hydrochloride) amounted to 1.6 nM. In the case of `COCc1ccc(C(C)=O)c2sc(C(=O)Nc3cc(C(C)(C)O)c4ccccc4n3)c(C)c12` [Example 28, 7-Acetyl-N-(4-(2-hydroxypropan-2-yl)quinolin-2-yl)-4-(methoxymethyl)-3-methylbenzo[b]thiophene-2-carboxamide hydrobromide], the IC50 in assay [1] (hydrobromide) was 2 nM. For `COCc1ccc(C(C)=O)c2sc(C(=O)Nc3ccc4c(C(=O)N5CC(OC)C5)cccc4n3)c(C)c12` [Example 107, 7-Acetyl-N-(5-((3-methoxyazetidin-1-yl)carbonyl)quinolin-2-yl)-4-(methoxymethyl)-3-methylbenzo[b]thiophene-2-carboxamide hydrobromide], in assay [1] (hydrobromide), the IC50 worked out at 0.73 nM. For the compound `CC(=O)c1ccc(C(C)=O)c2c(C)c(C(=O)Nc3cc(C(C)(C)O)c4ccccc4n3)sc12` [Example 5, 4,7-Diacetyl-N-(4-(2-hydroxypropan-2-yl)quinolin-2-yl)-3-methylbenzo[b]thiophene-2-carboxamide semisulfate], the IC50 in assay [1] was found to be 11 nM.

Usually inhibition in vivo stands for the relative decrease from the control value, in per cent. With `[2H]C([2H])(OC)c1ccc(C(C)=O)c2sc(C(=O)Nc3cc(C([2H])([2H])N4CC[C@@H](O)C4)c4ccccc4n3)c(C)c12` [Example 116, (R)-7-Acetyl-N-(4-((3-hydroxypyrrolidin-1-yl)(^2H2)methyl)quinolin-2-yl)-4-(methoxy(^2H2)methyl)-3-methylbenzo[b]thiophene-2-carboxamide], on PDE10A, the IC50 was 0.15 nM. For the same compound, the inhibition in vivo at 10 mg/kg with Male C57BL/6 Cr mice amounted to 180%. Turning to `CC(=O)c1ccc(C(C)=O)c2c(C)c(C(=O)Nc3cc(C(C)(C)O)c4ccccc4n3)sc12` [Example 3, 4,7-Diacetyl-N-(4-(2-hydroxypropan-2-yl)quinolin-2-yl)-3-methylbenzo[b]thiophene-2-carboxamide hydrochloride], in assay [1] (hydrochloride), the IC50 worked out at 5.9 nM. In turn, `COCc1ccc(C(C)=O)c2sc(C(=O)Nc3ccc4c(C(=O)N5CC(O)C5)cccc4n3)c(C)c12` [Example 101, 7-Acetyl-N-(5-((3-hydroxyazetidin-1-yl)carbonyl)quinolin-2-yl)-4-(methoxymethyl)-3-methylbenzo[b]thiophene-2-carboxamide] came in with an IC50 on PDE10A of 0.11 nM. In the assay on Male C57BL/6 Cr mice, the inhibition in vivo at 10 mg/kg is 35%. For `COCc1ccc(C(C)=O)c2sc(C(=O)Nc3ccc4c(C(C)O)cccc4n3)c(C)c12` (stereo not shown) [Example 76, 7-Acetyl-N-(5-(1-hydroxyethyl)quinolin-2-yl)-4-(methoxymethyl)-3-methylbenzo[b]thiophene-2-carboxamide], the IC50 on PDE10A stood at 0.53 nM. For the same compound, in the assay on Male C57BL/6 Cr mice, the inhibition in vivo at 10 mg/kg was found to be 102%.

`[2H]C([2H])([2H])OCc1cccc2nc(NC(=O)c3sc4c(C(C)=O)ccc(COC)c4c3C)ccc12` [Example 117, 7-Acetyl-4-(methoxymethyl)-N-(5-((^2H3)methoxymethyl)quinolin-2-yl)-3-methylbenzo[b]thiophene-2-carboxamide]: the IC50 at PDE10A came to 0.61 nM. The inhibition in vivo at 10 mg/kg in the assay with Male C57BL/6 Cr mice stood at 57%. For `[2H]C([2H])([2H])OCc1ccc(C(C)=O)c2sc(C(=O)Nc3ccc4c(COC)cccc4n3)c(C)c12` [Example 118, 7-Acetyl-4-((^2H3)methoxymethyl)-N-(5-(methoxymethyl)quinolin-2-yl)-3-methylbenzo[b]thiophene-2-carboxamide], in that order: 0.76 nM and 77%. The matching figures for `COCc1ccc(C(C)=O)c2sc(C(=O)Nc3cc(CN4CC(O)C4)c4ccccc4n3)c(C)c12` [Example 47, 7-Acetyl-N-(4-((3-hydroxyazetidin-1-yl)methyl)quinolin-2-yl)-4-(methoxymethyl)-3-methylbenzo[b]thiophene-2-carboxamide dihydrochloride]: 0.49 nM and 73%. On PDE10A, `COCCOCc1cccc2nc(NC(=O)c3sc4c(C(C)=O)ccc(COC)c4c3C)ccc12` [Example 71, 7-Acetyl-N-(5-((2-methoxyethoxy)methyl)quinolin-2-yl)-4-(methoxymethyl)-3-methylbenzo[b]thiophene-2-carboxamide hydrochloride] returned an IC50 of 0.75 nM. Moreover, in the assay with Male C57BL/6 Cr mice, the inhibition in vivo at 10 mg/kg worked out at 89%.

The compound `COCc1ccc(C(C)=O)c2sc(C(=O)Nc3ccc4c(CN5CC[C@H](O)C5)cccc4n3)c(C)c12` [Example 63, (S)-7-Acetyl-N-(5-((3-hydroxypyrrolidin-1-yl)methyl)quinolin-2-yl)-4-(methoxymethyl)-3-methylbenzo[b]thiophene-2-carboxamide dihydrochloride] came in with an IC50 on PDE10A of 1.1 nM. Further, the inhibition in vivo at 10 mg/kg in the assay on Male C57BL/6 Cr mice was found to be 84%. The matching figures for `COCc1ccc(C(C)=O)c2sc(C(=O)Nc3ccc4c(COC(=O)CN)cccc4n3)c(C)c12` [Example 85, (2-(7-Acetyl-4-(methoxymethyl)-3-methylbenzo[b]thiophene-2-carboxamido)quinolin-5-yl)methyl-2-aminoacetate]: 1.1 nM and 85%.

On PDE10A, `COCc1ccc(C(C)=O)c2sc(C(=O)Nc3ccc4c(COC(=O)[C@H](C)N)cccc4n3)c(C)c12` [Example 86, (S)-(2-(7-Acetyl-4-(methoxymethyl)-3-methylbenzo[b]thiophene-2-carboxamido)quinolin-5-yl)methyl-2-aminopropanoate] yielded an IC50 of 1.1 nM. In addition, the inhibition in vivo at 10 mg/kg with Male C57BL/6 Cr mice came to 88%. For the compound `CCc1c(C(=O)Nc2cc(CN3CC[C@@H](O)C3)c3ccccc3n2)sc2c(C(C)=O)ccc(COC)c12` [Example 42, (R)-7-Acetyl-3-ethyl-N-(4-((3-hydroxypyrrolidin-1-yl)methyl)quinolin-2-yl)-4-(methoxymethyl)benzo[b]thiophene-2-carboxamide], half-maximal inhibition against PDE10A (IC50) was put at 0.92 nM. The inhibition in vivo at 10 mg/kg in the assay with Male C57BL/6 Cr mice amounted to 85%.

Values taken from patent US9464076B2, “Benzothiophene derivative” (Daiichi Sankyo Company, Limited, priority 2013, dated 2016).
